Assay results from ChEMBL document CHEMBL1201862, “PubChem BioAssay data set” (2004).
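Protocol summary: plate cells (96-well), add compound at 5 concentrations, incubate 48 h, interpolate endpoints linearly. GI50 is the concentration that inhibits growth by half.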 The source made the active and inactive calls. Rule as the data show it: active = GI50 up to about 1.1 µM and inactive = higher.

Key:
Experiment in all cases: NCI anticancer screen, dose series, 48 h
[1] = test system: 786-0
[2] = test system: A498
[3] = test system: A549
[4] = test system: ACHN
[5] = test system: BT-549
[6] = test system: CAKI-1
[7] = test system: CCRF-CEM
[8] = test system: COLO 205
[9] = test system: DU-145
[10] = test system: EKVX
[11] = test system: HCC 2998
[12] = test system: HCT-116
[13] = test system: HCT-15
[14] = test system: HL-60
[15] = test system: HOP-62
[16] = test system: HOP-92
[17] = test system: HT-29
[18] = test system: Hs-578T
[19] = test system: IGROV-1
[20] = test system: K562
[21] = test system: KM12
[22] = test system: LOX IMVI
[23] = test system: M14
[24] = test system: MCF7
[25] = test system: MDA-MB-231
[26] = test system: MDA-MB-435
[27] = test system: MDA-N
[28] = test system: MOLT-4
[29] = test system: Malme-3M
[30] = test system: NCI-H226
[31] = test system: NCI-H23
[32] = test system: NCI-H460
[33] = test system: NCI-H522
[34] = test system: OVCAR-3
[35] = test system: OVCAR-4
[36] = test system: OVCAR-5
[37] = test system: OVCAR-8
[38] = test system: PC-3
[39] = test system: RPMI-8226
[40] = test system: RXF 393
[41] = test system: SF-268
[42] = test system: SF-295
[43] = test system: SF-539
[44] = test system: SK-MEL-28
[45] = test system: SK-MEL-2
[46] = test system: SK-MEL-5
[47] = test system: SK-OV-3
[48] = test system: SN12C
[49] = test system: SNB-19
[50] = test system: SNB-75
[51] = test system: SR
[52] = test system: SW-620
[53] = test system: T47D
[54] = test system: TK-10
[55] = test system: U-251
[56] = test system: UACC-257
[57] = test system: UACC-62
[58] = test system: UO-31
[59] = test system: NCI/ADR-RES

CN(C)c1ccc(/C=c2/c3ccccc3n3c2cc(/C=C/c2ccccc2)[n+]3C)cc1
GI50 [1]: 0.0815 µM (active)
GI50 [2]: 0.266 µM (active)
GI50 [3]: 0.0512 µM (active)
GI50 [4]: 0.255 µM (active)
GI50 [5]: 0.08 µM (active)
GI50 [6]: 1.28 µM (inactive)
GI50 [7]: 0.0206 µM (active)
GI50 [8]: 0.073 µM (active)
GI50 [9]: 0.1 µM (active)
GI50 [10]: 0.265 µM (active)
GI50 [11]: 0.121 µM (active)
GI50 [12]: 0.0824 µM (active)
GI50 [13]: 0.881 µM
GI50 [14]: 0.0927 µM (active)
GI50 [15]: 0.0893 µM (active)
GI50 [16]: 0.0358 µM (active)
GI50 [17]: 0.142 µM (active)
GI50 [18]: 0.0287 µM (active)
GI50 [19]: 0.145 µM (active)
GI50 [20]: 0.0951 µM (active)
GI50 [21]: 0.167 µM (active)
GI50 [22]: 0.12 µM (active)
GI50 [23]: 0.218 µM (active)
GI50 [24]: 0.147 µM (active)
GI50 [25]: 0.261 µM (active)
GI50 [26]: 0.135 µM (active)
GI50 [27]: 0.249 µM (active)
GI50 [28]: 0.0743 µM (active)
GI50 [29]: 0.233 µM (active)
GI50 [30]: 0.11 µM (active)
GI50 [31]: 0.0783 µM (active)
GI50 [32]: 0.185 µM (active)
GI50 [33]: 0.108 µM (active)
GI50 [34]: 0.141 µM (active)
GI50 [35]: 0.286 µM (active)
GI50 [36]: 0.502 µM (active)
GI50 [37]: 0.0773 µM (active)
GI50 [38]: 0.0933 µM (active)
GI50 [39]: 0.0208 µM (active)
GI50 [40]: 0.0538 µM (active)
GI50 [41]: 0.114 µM (active)
GI50 [42]: 0.225 µM (active)
GI50 [43]: 0.038 µM (active)
GI50 [44]: 0.269 µM (active)
GI50 [45]: 0.282 µM (active)
GI50 [46]: 0.144 µM (active)
GI50 [47]: 0.296 µM (active)
GI50 [48]: 0.0841 µM (active)
GI50 [49]: 0.217 µM (active)
GI50 [50]: 0.033 µM (active)
GI50 [51]: 0.0367 µM (active)
GI50 [52]: 0.0916 µM (active)
GI50 [53]: 0.0164 µM (active)
GI50 [54]: 0.393 µM (active)
GI50 [55]: 0.0399 µM (active)
GI50 [56]: 0.339 µM (active)
GI50 [57]: 0.281 µM (active)
GI50 [58]: 0.344 µM (active)

COc1cc(-c2coc3c(OC)c(OC4OC(COC5OC(C)C(O)C(O)C5O)C(O)C(O)C4O)c(OC)c(O)c3c2=O)cc(C)c1O (configuration not stated)
GI50 [1]: 0.178 µM (active)
GI50 [3]: 23.8 µM (inactive)
GI50 [4]: 21.2 µM (inactive)
GI50 [5]: 13.9 µM (inactive)
GI50 [6]: 18 µM (inactive)
GI50 [7]: 5.93 µM (inactive)
GI50 [8]: 19.6 µM (inactive)
GI50 [9]: 19.6 µM (inactive)
GI50 [10]: 17.2 µM (inactive)
GI50 [11]: 16.1 µM (inactive)
GI50 [12]: 0.185 µM (active)
GI50 [13]: 16.4 µM
GI50 [15]: 22.1 µM (inactive)
GI50 [16]: 19.2 µM (inactive)
GI50 [17]: 19.5 µM (inactive)
GI50 [18]: 20.7 µM (inactive)
GI50 [19]: 17 µM (inactive)
GI50 [20]: 13.4 µM (inactive)
GI50 [21]: 11.7 µM (inactive)
GI50 [22]: 16.5 µM (inactive)
GI50 [23]: 15.5 µM (inactive)
GI50 [24]: 12.3 µM (inactive)
GI50 [25]: 32.5 µM (inactive)
GI50 [26]: 16 µM (inactive)
GI50 [27]: 0.873 µM (active)
GI50 [28]: 3.73 µM (inactive)
GI50 [29]: 18.3 µM (inactive)
GI50 [31]: 13.1 µM (inactive)
GI50 [32]: 23.2 µM (inactive)
GI50 [33]: 12.7 µM (inactive)
GI50 [59]: 17.9 µM (inactive)
GI50 [34]: 13.7 µM (inactive)
GI50 [35]: 18.9 µM (inactive)
GI50 [36]: 21.7 µM (inactive)
GI50 [37]: 23.6 µM (inactive)
GI50 [38]: 24.8 µM (inactive)
GI50 [40]: 13 µM (inactive)
GI50 [41]: 19.4 µM (inactive)
GI50 [42]: 16.6 µM (inactive)
GI50 [43]: 21.3 µM (inactive)
GI50 [44]: 15.1 µM (inactive)
GI50 [45]: 23.8 µM (inactive)
GI50 [46]: 12.6 µM (inactive)
GI50 [47]: 16.8 µM (inactive)
GI50 [48]: 1.68 µM (inactive)
GI50 [49]: 13.8 µM (inactive)
GI50 [50]: 16 µM (inactive)
GI50 [52]: 12.7 µM (inactive)
GI50 [53]: 15.5 µM (inactive)
GI50 [54]: 34.8 µM (inactive)
GI50 [55]: 15.5 µM (inactive)
GI50 [56]: 22.3 µM (inactive)
GI50 [57]: 14.3 µM (inactive)
GI50 [58]: 16.6 µM (inactive)
